Data reported in patent US10617748B2, “Immunogenic control of tumours and tumour cells” (LIFE SCIENCES RESEARCH PARTNERS VZW, priority 2008, dated 2020).
Peptide text beside a SMILES is read from it.

Key:
[1] = system: APCs presenting the natural or modified MAGE-3 T-cell epitope; test: Cytotoxic CD4+ T cells elicited by in vivo immunisation; apoptosis (annexin V, Facs) of peptide-loaded APC in co-culture, MAGE-3 epitope; design: species or system C57BI/6 mice; conditions: 25 μg peptide, 3 footpath injections in CFA/IFA; splenic CD4+ T cells co-cultured 24 h with APC loaded with SEQ ID NO:1 or SEQ ID NO:2 (5 μg/mL)
Description: The sequence of the (natural) T-cell epitope corresponds to amino acids 258 to 266 of MAGE-3, namely: YRQVPGSDP (SEQ ID NO:1).
(§1) Finally, cells are analysed by Facs analysis.

[2] = system: APCs presenting the natural or modified survivin T-cell epitope; test: Cytotoxic CD4+ T cells elicited by in vivo immunisation; apoptosis (annexin V, Facs) of peptide-loaded APC in co-culture, survivin epitope; design: species or system C57BI/6 mice; conditions: 25 μg peptide, 3 footpath injections in CFA/IFA; splenic CD4+ T cells co-cultured 24 h with APC loaded with SEQ ID NO:5 or SEQ ID NO:6 (5 μg/mL)
Description: The sequence of the peptide corresponds to amino acids 61 to 69 of survivin, namely: FKELEGWEP (SEQ ID NO:5).
as §1

[3] = system: APCs presenting the natural or modified Epstein-Barr LMP2 T-cell epitope; test: Cytotoxic CD4+ T cells elicited by in vivo immunisation; apoptosis (annexin V, Facs) of peptide-loaded APC in co-culture, Epstein-Barr LMP2 epitope; design: species or system BALB/c mice; conditions: 25 μg peptide, 3 footpath injections in CFA/IFA; splenic CD4+ T cells co-cultured 24 h with APC loaded with SEQ ID NO:7 or SEQ ID NO:8 (5 μg/mL)
Description: The sequence of the peptide corresponds to amino acids 167 to 175 of LMP2, namely: VASSYAAAQ (SEQ ID NO:7).
Spleen adherent cells prepared from naïve BALB/c mice are used as antigen-presenting cells (APC).
as §1

## CC(C)[C@H](NC(=O)[C@H](CCC(N)=O)NC(=O)[C@H](CCCNC(=N)N)NC(=O)[C@H](Cc1ccc(O)cc1)NC(=O)[C@H](CS)NC(=O)CNC(=O)[C@H](Cc1c[nH]cn1)NC(=O)[C@@H](N)CS)C(=O)N1CCC[C@H]1C(=O)NCC(=O)N[C@@H](CO)C(=O)N[C@@H](CC(=O)O)C(=O)N1CCC[C@H]1C(=O)O [SEQ ID NO:2, CHGCYRQVPGSDP] (H-CHGCYRQVPGSDP-OH)
[1]
  elicitation of CD4+ T cells with cytotoxic properties towards APCs: can elicit CD4+ T cells with cytotoxic properties

## CC(C)C[C@H](NC(=O)[C@H](CCC(=O)O)NC(=O)[C@H](CCCCN)NC(=O)[C@H](Cc1ccccc1)NC(=O)[C@H](CS)NC(=O)CNC(=O)[C@H](Cc1c[nH]cn1)NC(=O)[C@@H](N)CS)C(=O)N[C@@H](CCC(=O)O)C(=O)NCC(=O)N[C@@H](Cc1c[nH]c2ccccc12)C(=O)N[C@@H](CCC(=O)O)C(=O)N1CCC[C@H]1C(=O)O [SEQ ID NO:6, CHGCFKELEGWEP] (H-CHGCFKELEGWEP-OH)
[2]
  elicitation of CD4+ T cells with cytotoxic properties towards APCs: can elicit CD4+ T cells with cytotoxic properties

## CC(C)[C@H](NC(=O)[C@H](CS)NC(=O)CNC(=O)[C@H](Cc1c[nH]cn1)NC(=O)[C@@H](N)CS)C(=O)N[C@@H](C)C(=O)N[C@@H](CO)C(=O)N[C@@H](CO)C(=O)N[C@@H](Cc1ccc(O)cc1)C(=O)N[C@@H](C)C(=O)N[C@@H](C)C(=O)N[C@@H](C)C(=O)N[C@@H](CCC(N)=O)C(=O)O [SEQ ID NO:8, CHGCVASSYAAAQ] (H-CHGCVASSYAAAQ-OH)
[3]
  elicitation of CD4+ T cells with cytotoxic properties towards APCs: can elicit CD4+ T cells with cytotoxic properties
